Data published in patent US4033960A, “2-Mercaptoquinoxaline-di-N-oxide products and a method for their preparation” (Bayer Aktiengesellschaft, priority 1973, dated 1977).
In brackets after ≈: the same amount, converted by molar mass.

Key:
Experiment in all cases: Minimum inhibitory concentration by the plate test (agar)
Format in all cases: cell-based
Proteus vulgaris 1017 = settings: per ml of nutrient medium, 5,000 cells/10 ml, 0-10 colonies formed, pH 7.4
Experimental: (§1) […] The bacteria to be tested are cast, together with the nutrient medium and the test substance distributed in the agar, into a Petri dish. The number of bacterial cells is 5,000/10 ml of nutrient medium. The minimum inhibitory concentration is the concentration at which 0-10 colonies are formed.

Escherichia coli A 261 = settings: 0-10 colonies formed, pH 7.4; for Minimum inhibitory concentration: per ml of nutrient medium, 5,000 cells/10 ml
Experimental: as §1

Escherichia coli C 165 = settings: 0-10 colonies formed, pH 7.4; for Minimum inhibitory concentration: per ml of nutrient medium, 5,000 cells/10 ml
Experimental: as §1

[1] = system: Staphylococcus aureus 133; settings: per ml of nutrient medium, 5,000 cells/10 ml, 0-10 colonies formed, pH 7.4
Experimental: as §1

Klebsiella 8085 = settings: per ml of nutrient medium, 5,000 cells/10 ml, 0-10 colonies formed, pH 7.4
Experimental: as §1

Row | Compound | MIC (Proteus vulgaris 1017) | MIC (Escherichia coli A 261; A261, per ml of nutrient medium, 5,000 cells/10 ml) | MIC (Escherichia coli C 165; C165, per ml of nutrient medium, 5,000 cells/10 ml) | MIC [1] | MIC (Klebsiella 8085) | Minimum inhibitory concentration (Proteus vulgaris 1017) | Minimum inhibitory concentration (Escherichia coli A 261) | Minimum inhibitory concentration (Escherichia coli C 165) | Minimum inhibitory concentration [1] | Minimum inhibitory concentration (Klebsiella 8085)
1 | Cc1c(S)[n+]([O-])c2ccccc2[n+]1[O-] [Example 1, 2-Mercapto-3-methylquinoxaline-di-N-oxide] | 100 µg/mL (≈ 480 µM) | 50 to 100 µg/mL (≈ 240 to 480 µM) | 50 to 100 µg/mL (≈ 240 to 480 µM) | 100 µg/mL (≈ 480 µM) | 10 µg/mL (≈ 48 µM) | – | – | – | – | –
2 | 6(7)-fluoro-2-mercapto-3-methyl-quinoxaline-di-N-oxide [Example 3] | – | – | – | – | – | 128 µg/mL | 128 µg/mL | 64 to 128 µg/mL | 128 µg/mL | –
3 | 6(7)-chloro-2-mercapto-3-methyl-quinoxaline-di-N-oxide [Example 2] | – | – | – | – | – | 64 to 128 µg/mL | 128 µg/mL | 128 µg/mL | 128 µg/mL | 128 µg/mL
4 | 6(7)-methoxy-2-mercapto-3-methyl-quinoxaline-di-N-oxide [Example 7] | – | – | – | – | – | 128 µg/mL | 128 µg/mL | 64 to 128 µg/mL | 128 µg/mL | –
5 | 6(7)-bromo-2-mercapto-3-methyl-quinoxaline-di-N-oxide [Example 4] | – | – | – | – | – | – | 100 µg/mL | 100 µg/mL | 100 µg/mL | –
